Results as given in ChEMBL document CHEMBL1201862, “PubChem BioAssay data set” (2004).
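48-hour exposure; five concentrations; linearly interpolated endpoints. GI50 = concentration required for 50% inhibition of growth.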 Calls of active or inactive are those of the source. Rule as the data show it: active = GI50 up to about 1.1 µM and inactive = higher.

How the values were obtained:
Experiment in all cases: NCI-60 cell line screen, 48 h
OVCAR-3 = system: OVCAR-3
SK-MEL-2 = system: SK-MEL-2
ACHN = system: ACHN
HCT-15 = system: HCT-15
COLO 205 = system: COLO 205
NCI-H226 = system: NCI-H226
SW-620 = system: SW-620
SR = system: SR
UACC-62 = system: UACC-62
HCT-116 = system: HCT-116
SK-MEL-28 = system: SK-MEL-28
CCRF-CEM = system: CCRF-CEM
NCI-H460 = system: NCI-H460
RPMI-8226 = system: RPMI-8226
K562 = system: K562
HOP-62 = system: HOP-62
A498 = system: A498
A549 = system: A549

Row | Compound | GI50 (OVCAR-3) | GI50 (SK-MEL-2) | GI50 (ACHN) | GI50 (HCT-15) [µM] | GI50 (COLO 205) | GI50 (NCI-H226) | GI50 (SW-620) | GI50 (SR) | GI50 (UACC-62) | GI50 (HCT-116) | GI50 (SK-MEL-28) | GI50 (CCRF-CEM) | GI50 (NCI-H460) | GI50 (RPMI-8226) | GI50 (K562) | GI50 (HOP-62) | GI50 (A498) | GI50 (A549)
1 | C=CC(=O)N1C/C(=C\c2ccc(Cl)c(Cl)c2)C(=O)/C(=C/c2ccc(Cl)c(Cl)c2)C1 | 0.0865 µM (active) | 0.42 µM (active) | 0.169 µM (active) | 0.0716 | 0.112 µM (active) | 1.25 µM (inactive) | 0.0607 µM (active) | 0.0259 µM (active) | 0.298 µM (active) | 0.0612 µM (active) | 0.458 µM (active) | 0.0228 µM (active) | 0.152 µM (active) | 0.0246 µM (active) | 0.0404 µM (active) | 0.264 µM (active) | 0.63 µM (active) | –
2 | Oc1ccc2c(O)cc(-c3ccccc3)nc2c1 | – | 31.7 µM (inactive) | 21.4 µM (inactive) | 15.8 | 17 µM (inactive) | 65.3 µM (inactive) | 16.4 µM (inactive) | 38.1 µM (inactive) | 19.9 µM (inactive) | 17.4 µM (inactive) | 38.3 µM (inactive) | 18.2 µM (inactive) | 17.8 µM (inactive) | 17.5 µM (inactive) | 19.2 µM (inactive) | 28.2 µM (inactive) | 32.1 µM (inactive) | 23.1 µM (inactive)
3 | CC(C)(C)C(C#N)(C#N)c1ccc(C(C#N)(C#N)C(C)(C)C)nn1 | > 100 µM (inactive) | > 100 µM (inactive) | 82 µM (inactive) | > 100 | > 100 µM (inactive) | – | > 100 µM (inactive) | – | > 100 µM (inactive) | – | > 100 µM (inactive) | > 100 µM (inactive) | > 100 µM (inactive) | > 100 µM (inactive) | > 100 µM (inactive) | > 100 µM (inactive) | – | > 100 µM (inactive)
4 | Cc1ccc(C(c2c(O)c3ccccc3n(-c3ccccc3)c2=O)c2c(O)c3ccccc3n(-c3ccccc3)c2=O)cc1 | > 100 µM (inactive) | > 100 µM (inactive) | 89.3 µM (inactive) | > 100 | > 100 µM (inactive) | > 100 µM (inactive) | > 100 µM (inactive) | 62.4 µM (inactive) | – | > 100 µM (inactive) | > 100 µM (inactive) | 7.06 µM (inactive) | – | > 100 µM (inactive) | > 100 µM (inactive) | > 100 µM (inactive) | – | > 100 µM (inactive)
5 | Cc1ccc(/C=C/C(=O)c2sc(C(N)=S)nc2C)cc1 | > 100 µM (inactive) | > 100 µM (inactive) | > 100 µM (inactive) | > 100 | > 100 µM (inactive) | > 100 µM (inactive) | > 100 µM (inactive) | – | > 100 µM (inactive) | – | > 100 µM (inactive) | > 100 µM (inactive) | > 100 µM (inactive) | > 100 µM (inactive) | > 100 µM (inactive) | > 100 µM (inactive) | > 100 µM (inactive) | > 100 µM (inactive)
6 | COc1ccc(-c2c(N)[n+]([O-])c3ccccc3[n+]2[O-])cc1OC | > 100 µM (inactive) | > 100 µM (inactive) | > 100 µM (inactive) | > 100 | > 100 µM (inactive) | > 100 µM (inactive) | > 100 µM (inactive) | > 100 µM (inactive) | – | > 100 µM (inactive) | > 100 µM (inactive) | – | > 100 µM (inactive) | > 100 µM (inactive) | > 100 µM (inactive) | > 100 µM (inactive) | > 100 µM (inactive) | > 100 µM (inactive)
7 | Cn1c2ccccc2c2cc(-c3ccccc3)c3c(c21)C(=O)c1ccccc1C3=O | 11.9 µM (inactive) | 19.5 µM (inactive) | – | – | 31.5 µM (inactive) | 22 µM (inactive) | 18.8 µM (inactive) | 4.79 µM (inactive) | 13.3 µM (inactive) | 15.8 µM (inactive) | 14.7 µM (inactive) | 5.19 µM (inactive) | – | 4.67 µM (inactive) | 21.4 µM (inactive) | 40.5 µM (inactive) | > 100 µM (inactive) | 20.4 µM (inactive)
8 | COc1ccccc1NC(=O)CC(=O)N/N=C/c1ccc(N(CCC#N)S(=O)(=O)c2ccccc2)cc1 | > 100 µM (inactive) | > 100 µM (inactive) | > 100 µM (inactive) | > 100 | > 100 µM (inactive) | > 100 µM (inactive) | > 100 µM (inactive) | > 100 µM (inactive) | > 100 µM (inactive) | > 100 µM (inactive) | > 100 µM (inactive) | > 100 µM (inactive) | > 100 µM (inactive) | > 100 µM (inactive) | > 100 µM (inactive) | > 100 µM (inactive) | – | > 100 µM (inactive)
9 | Cc1ccc([N+](=O)[O-])cc1NC(=O)C(=O)Cc1nc2ccc(C(=O)c3ccccc3)cc2nc1O | > 100 µM (inactive) | – | > 100 µM (inactive) | > 100 | > 100 µM (inactive) | > 100 µM (inactive) | > 100 µM (inactive) | 60 µM (inactive) | > 100 µM (inactive) | > 100 µM (inactive) | > 100 µM (inactive) | > 100 µM (inactive) | > 100 µM (inactive) | – | – | > 100 µM (inactive) | – | > 100 µM (inactive)
10 | COC(=O)C12C3C4C1C1C2C3C41C(=O)N(C(C)C)C(C)C (configuration not stated) | > 100 µM (inactive) | – | > 100 µM (inactive) | > 100 | > 100 µM (inactive) | > 100 µM (inactive) | > 100 µM (inactive) | > 100 µM (inactive) | > 100 µM (inactive) | > 100 µM (inactive) | > 100 µM (inactive) | > 100 µM (inactive) | > 100 µM (inactive) | – | > 100 µM (inactive) | > 100 µM (inactive) | > 100 µM (inactive) | > 100 µM (inactive)
11 | O=C(CCc1nnc(S)[nH]1)Nc1cc(Cl)c(Cl)cc1Cl | > 100 µM (inactive) | > 100 µM (inactive) | > 100 µM (inactive) | > 100 | > 100 µM (inactive) | > 100 µM (inactive) | > 100 µM (inactive) | – | > 100 µM (inactive) | > 100 µM (inactive) | > 100 µM (inactive) | > 100 µM (inactive) | > 100 µM (inactive) | > 100 µM (inactive) | > 100 µM (inactive) | > 100 µM (inactive) | > 100 µM (inactive) | > 100 µM (inactive)
12 | O=C(CC1(O)C(=O)Nc2ccc([N+](=O)[O-])cc21)c1ccc(Br)cc1 (configuration not stated) | 43 µM (inactive) | > 100 µM (inactive) | 56.6 µM (inactive) | > 100 | > 100 µM (inactive) | 85.1 µM (inactive) | > 10 µM (inactive) | – | 47.2 µM (inactive) | 37.2 µM (inactive) | > 100 µM (inactive) | 47.4 µM (inactive) | > 100 µM (inactive) | 35.5 µM (inactive) | 54.6 µM (inactive) | > 100 µM (inactive) | 23.2 µM (inactive) | > 100 µM (inactive)
13 | COC(=O)C1C(/C=C/c2ccoc2)ON2CCC[C@@H]12 (some centres not stated) | > 100 µM (inactive) | > 100 µM (inactive) | 67.8 µM (inactive) | – | > 100 µM (inactive) | > 100 µM (inactive) | > 100 µM (inactive) | > 100 µM (inactive) | – | – | > 100 µM (inactive) | – | > 100 µM (inactive) | – | – | > 100 µM (inactive) | – | > 100 µM (inactive)
14 | Cc1ccc(S(=O)OC2C3CC4CC(C3)CC2C4)cc1 (configuration not stated) | > 100 µM (inactive) | – | > 100 µM (inactive) | > 100 | > 100 µM (inactive) | > 100 µM (inactive) | > 100 µM (inactive) | > 100 µM (inactive) | > 100 µM (inactive) | > 100 µM (inactive) | > 100 µM (inactive) | – | > 100 µM (inactive) | > 100 µM (inactive) | > 100 µM (inactive) | > 100 µM (inactive) | > 100 µM (inactive) | > 100 µM (inactive)
15 | COc1ccc2c(c1OC)C(=O)c1cnccc1C2=O | > 100 µM (inactive) | > 100 µM (inactive) | > 100 µM (inactive) | > 100 | > 100 µM (inactive) | > 100 µM (inactive) | > 100 µM (inactive) | > 100 µM (inactive) | > 100 µM (inactive) | > 100 µM (inactive) | > 100 µM (inactive) | > 100 µM (inactive) | > 100 µM (inactive) | > 100 µM (inactive) | > 100 µM (inactive) | > 100 µM (inactive) | – | > 100 µM (inactive)
16 | CCCCN(CCCC)CC(C(=O)Nc1ccc([N+](=O)[O-])cc1[N+](=O)[O-])/C(C)=N\NC(=O)c1ccncc1 (configuration not stated) | > 100 µM (inactive) | > 100 µM (inactive) | > 100 µM (inactive) | > 100 | > 100 µM (inactive) | – | > 100 µM (inactive) | – | > 100 µM (inactive) | – | > 100 µM (inactive) | > 100 µM (inactive) | > 100 µM (inactive) | > 100 µM (inactive) | > 100 µM (inactive) | > 100 µM (inactive) | > 100 µM (inactive) | > 100 µM (inactive)
17 | COc1cccc(/C(C=O)=C(\Cl)c2ccc(OC)c(OC)c2)c1 | 16.6 µM (inactive) | 19.2 µM (inactive) | 13.6 µM (inactive) | 12.9 | 14.5 µM (inactive) | 14 µM (inactive) | 15.9 µM (inactive) | 13.5 µM (inactive) | 4.63 µM (inactive) | 10.6 µM (inactive) | 15.1 µM (inactive) | 7.74 µM (inactive) | 13.3 µM (inactive) | 11.5 µM (inactive) | 13.6 µM (inactive) | 12.3 µM (inactive) | – | 19.5 µM (inactive)
